Key:
[1] = Evaluation of liquid crystallinity of compound (hot stage, polarization microscope); type: physicochemical; parameters: key: A case of having liquid crystallinity was evaluated as A; a case of having no liquid crystallinity was evaluated as B; conditions: compound alone, heated on hot stage
Experimental: Each compound was heated on a hot stage and observed with a polarization microscope, and the phase transition temperature was measured to evaluate the presence or absence of liquid crystallinity. A case of having liquid crystallinity was evaluated as A, and a case of having no liquid crystallinity was evaluated as B. The results are shown in the column of “Liquid crystallinity” of “Compound 2” in Table 1.

[2] = Evaluation of solubility in cyclopentanone (precipitation concentration); type: physicochemical; conditions: precipitation concentration in cyclopentanone at room temperature (25° C.)

| Compound 2 Liquid crystallinity [1] | SMILES | Compound 2 Solubility [2] |
| --- | --- | --- |
| A | C=CC(=O)OCCc1ccc(C#Cc2ccc(OCc3ccc(C#Cc4ccc(COc5ccc(C#Cc6ccc(CCOC(=O)C=C)cc6)cc5C)cc4)cc3)c(C)c2)cc1 [Compound B-2] | B (the solubility in a case where the precipitation concentration was 5% by mass or less was evaluated as B) |
| A | C=CC(=O)OCCSc1ccc(C#Cc2ccc(OCc3ccc(C#Cc4ccc(COc5ccc(C#Cc6ccc(SCCOC(=O)C=C)cc6)cc5C(=O)OC)cc4)cc3)c(C(=O)OC)c2)cc1 [Compound B-4] | A (the solubility in a case where the precipitation concentration was more than 5% by mass was evaluated as A) |
| A | C=CC(=O)OCCSc1ccc(C#Cc2ccc(OCc3ccc(C#Cc4ccc(COc5ccc(C#Cc6ccc(SCCOC(=O)C=C)cc6)cc5C)cc4)cc3)c(C)c2)cc1 [Compound B-3] | B (the solubility in a case where the precipitation concentration was 5% by mass or less was evaluated as B) |
| A | CC(=O)OCCc1ccc(C#Cc2ccc(OCc3ccc(C#Cc4ccc(COc5ccc(C#Cc6ccc(CCOC(C)=O)cc6)cc5C)cc4)cc3)c(C)c2)cc1 [Compound B-1] | B (the solubility in a case where the precipitation concentration was 5% by mass or less was evaluated as B) |

— patent publication US12577469B2, “Compound, composition, cured product, optically anisotropic body, optical element, and light guide element” (FUJIFILM Corporation, priority 2021, dated 2026)
